≈ marks a conversion by molar mass, not a printed value.
Legend:
Format in all cases: cell-based
[1] = system: Scedosporium prolifican 4883; assay: Minimum Inhibitory Concentration (MIC), RPMI medium
Experimental: (§1) Between 1 and 5 mgs of the compound were accurately weighed out into a sterile Eppendorf tube. The compound was dissolved in DMSO to give a solution containing 5 mg/mL. Tubes were stored at −20° C. until required.
(§2) On the day of testing thawed solutions were vortex mixed to ensure homogeneity. 30 μL of solution was removed and added to 570 μL of sterile water in a separate sterile Eppendorf. The thoroughly mixed solution was used to prepare a series of doubling dilutions in water, in a deep well plate. Thirteen replicate plates were prepared using a Minitrak by aspirating 20 μL from each well into eleven clear polystyrene 96 well plates.
(§3) Spores of Aspergillus and Scedosporium were harvested from cultures grown on Sabarauds agar for 5 days, and resuspended in PBS/Tween 80 to approx 1×10^7 cfu/mL. Each organism suspension was diluted in RPMI medium, containing 2% glucose and 0.135 M MOPS buffer (pH 7.0) to 0.5-2×10^4 cfu/mL. 80 μL of an organism suspension was added to each well of the plate containing drug dilutions.
(§4) This produced MIC plates with a drug range 50-0.05 mg/L and organism inocula of 1-2×10^4 cfu/mL. All plates were incubated for 24-48 h at 35° C. Growth was assessed by monitoring the optical density at 485 nm for each well. The MIC of a compound is the lowest drug concentration that inhibits growth of an organism by >80% compared with a drug free control.

[2] = system: Scedosporium apiospermum 451; assay: as above
Experimental: as §1, §2, §3, §4

[3] = system: Scedosporium prolifican 13486; assay: as above
Experimental: as §1, §2, §3, §4

A. terreus 49 = assay: as above; details: Aspergillus terreus, >80% growth inhibition
Experimental: as §1, §2, §3, §4

[4] = system: Scedosporium prolificans 206; assay: as above; details: Lomentospora prolificans
Experimental: as §1, §2, §3, §4

[5] = system: Scedosporium prolificans 6322; assay: as above; details: Lomentospora prolificans
Experimental: as §1, §2, §3, §4

A. terreus = assay: as above; details: Aspergillus terreus, >80% growth inhibition
Experimental: as §1, §2, §3, §4

[6] = system: Scedosporium apiospermum 7935; assay: as above
Experimental: as §1, §2, §3, §4

Scedos apiospermum 1124 = assay: as above; details: Scedosporium apiospermum
Experimental: as §1, §2, §3, §4

[7] = system: Scedosporium prolifican 1121; assay: as above
Experimental: as §1, §2, §3, §4

A. niger = assay: as above; details: Aspergillus niger, >80% growth inhibition
Experimental: as §1, §2, §3, §4

A. fumigatus 210 = assay: as above; details: Aspergillus fumigatus, >80% growth inhibition
Experimental: as §1, §2, §3, §4

A. flavus = assay: as above; details: Aspergillus flavus, >80% growth inhibition
Experimental: as §1, §2, §3, §4

A. fumigatus = assay: as above; details: Aspergillus fumigatus, >80% growth inhibition
Experimental: as §1, §2, §3, §4

[8] = system: Scedosporium prolifican 7935; assay: as above
Experimental: as §1, §2, §3, §4

[9] = system: Scedosporium apiospermum 8353; assay: as above
Experimental: as §1, §2, §3, §4

[10] = system: Scedosporium prolifican 15849; assay: as above
Experimental: as §1, §2, §3, §4

[11] = system: Scedosporium prolifican 451; assay: as above
Experimental: as §1, §2, §3, §4

[12] = system: Scedosporium apiospermum 13486; assay: as above
Experimental: as §1, §2, §3, §4

[13] = system: Scedosporium prolifican 201; assay: as above
Experimental: as §1, §2, §3, §4

[14] = system: Scedosporium species 15849; assay: as above
Experimental: as §1, §2, §3, §4

[15] = system: Scedosporium apiospermum 4883; assay: as above
Experimental: as §1, §2, §3, §4

[16] = system: Scedosporium apiospermum 15848; assay: as above
Experimental: as §1, §2, §3, §4

[17] = system: Scedosporium prolifican 15848; assay: as above
Experimental: as §1, §2, §3, §4

[18] = system: Scedosporium prolifican 8353; assay: as above
Experimental: as §1, §2, §3, §4

[19] = system: Scedosporium prolificans 18389; assay: as above; details: Lomentospora prolificans
Experimental: as §1, §2, §3, §4

S. aurantiacum = assay: Analogous MIC experiments
Experimental: as §1, §2, §3, §4

S. dehoogii = assay: Analogous MIC experiments
Experimental: as §1, §2, §3, §4

S. boydii = assay: Analogous MIC experiments
Experimental: as §1, §2, §3, §4

Compound: Cc1cc(-c2ccccc2)c(C(=O)C(=O)Nc2ccc(N3CCN(c4ncc(F)cn4)CC3)cc2)n1C [Example 1, 2-(1,5-dimethyl-3-phenyl-1H-pyrrol-2-yl)-N-(4-(4-(5-fluoropyrimidin-2-yl)piperazin-1-yl)phenyl)-2-oxoacetamide]
- MIC [1]: 0.01 to 0.02 µg/mL (≈ 0.0201 to 0.0401 µM)
- MIC [2]: 0.005 to 0.01 µg/mL (≈ 0.01 to 0.0201 µM)
- MIC [3]: 0.02 to 0.04 µg/mL (≈ 0.0401 to 0.0802 µM)
- MIC (A. terreus 49): ≤ 0.005 µg/mL
- MIC [4]: 0.02 to 0.04 µg/mL (≈ 0.0401 to 0.0802 µM)
- MIC [5]: 0.02 to 0.04 µg/mL (≈ 0.0401 to 0.0802 µM)
- MIC (A. terreus): ≤ 0.005 µg/mL
- MIC [6]: 0.01 to 0.02 µg/mL (≈ 0.0201 to 0.0401 µM)
- MIC (Scedos apiospermum 1124): ≤ 0.005 µg/mL
- MIC [7]: ≤ 0.005 µg/mL
- MIC (A. niger): 0.01 to 0.02 µg/mL (≈ 0.0201 to 0.0401 µM)
- MIC (A. fumigatus 210): 0.01 to 0.02 µg/mL (≈ 0.0201 to 0.0401 µM)
- MIC (A. flavus): 0.005 to 0.01 µg/mL (≈ 0.01 to 0.0201 µM)
- MIC (A. fumigatus): 0.01 to 0.02 µg/mL (≈ 0.0201 to 0.0401 µM)
- MIC [8]: 0.01 to 0.02 µg/mL (≈ 0.0201 to 0.0401 µM)
- MIC [9]: 0.005 to 0.01 µg/mL (≈ 0.01 to 0.0201 µM)
- MIC [10]: 0.04 to 0.06 µg/mL (≈ 0.0802 to 0.12 µM)
- MIC [11]: 0.005 to 0.01 µg/mL (≈ 0.01 to 0.0201 µM)
- MIC Scedosporium apiospermum 13486 [12]: D (A grade of D represents an MIC of greater than 0.02 mg/L but less than or equal to 0.04 mg/L)
- MIC ([12]; Scedosporium apiospermum, 13486): 0.02 to 0.04 µg/mL (≈ 0.0401 to 0.0802 µM)
- MIC [13]: 0.02 to 0.04 µg/mL (≈ 0.0401 to 0.0802 µM)
- MIC [14]: 0.04 to 0.06 µg/mL (≈ 0.0802 to 0.12 µM)
- MIC [15]: 0.01 to 0.02 µg/mL (≈ 0.0201 to 0.0401 µM)
- MIC [16]: 0.02 to 0.04 µg/mL (≈ 0.0401 to 0.0802 µM)
- MIC [17]: 0.02 to 0.04 µg/mL (≈ 0.0401 to 0.0802 µM)
- MIC [18]: 0.005 to 0.01 µg/mL (≈ 0.01 to 0.0201 µM)
- MIC [19]: 0.01 to 0.02 µg/mL (≈ 0.0201 to 0.0401 µM)
- antifungal activity against S. aurantiacum (S. aurantiacum): good antifungal activity
- antifungal activity against S. dehoogii (S. dehoogii): good antifungal activity
- antifungal activity against S. boydii (S. boydii): good antifungal activity

— patent US10596150B2, “Antifungal agents” (F2G LIMITED, priority 2014, dated 2020)
